Results: the NIST ThermoML archive (doi:10.1016/j.jct.2006.07.022)

Test: xn = mol fraction of the nth substance listed
Conditions: 101 kPa, Liquid

CN(C)C=O [dimethylformamide] + c1ccccc1
Conditions	mass density [kg/m3]
293.15 K, x2 = 0	948.58
293.15 K, x2 = 0.0785	943.13
293.15 K, x2 = 0.1347	939.28
293.15 K, x2 = 0.2036	934.59
293.15 K, x2 = 0.2699	930.11
293.15 K, x2 = 0.3352	925.71
293.15 K, x2 = 0.4034	921.13
293.15 K, x2 = 0.4874	915.49
293.15 K, x2 = 0.5432	911.72
293.15 K, x2 = 0.6044	907.55
293.15 K, x2 = 0.6705	903
293.15 K, x2 = 0.7413	898.06
293.15 K, x2 = 0.8056	893.49
293.15 K, x2 = 0.871	888.73
293.15 K, x2 = 0.9214	884.99
293.15 K, x2 = 0.9785	880.66
303.15 K, x2 = 0	939.46
303.15 K, x2 = 0.0689	934.59
303.15 K, x2 = 0.1354	929.93
303.15 K, x2 = 0.2037	925.19
303.15 K, x2 = 0.2701	920.6
303.15 K, x2 = 0.3387	915.87
303.15 K, x2 = 0.407	911.17
303.15 K, x2 = 0.4735	906.6
303.15 K, x2 = 0.5403	901.98
303.15 K, x2 = 0.6054	897.43
303.15 K, x2 = 0.6791	892.23
303.15 K, x2 = 0.7441	887.56
303.15 K, x2 = 0.81	882.75
303.15 K, x2 = 0.8741	877.97
303.15 K, x2 = 0.9245	874.12
303.15 K, x2 = 0.9784	869.92
313.15 K, x2 = 0	930.12
313.15 K, x2 = 0.0655	925.37
313.15 K, x2 = 0.1357	920.35
313.15 K, x2 = 0.2019	915.66
313.15 K, x2 = 0.2684	910.98
313.15 K, x2 = 0.336	906.21
313.15 K, x2 = 0.4063	901.26
313.15 K, x2 = 0.4726	896.57
313.15 K, x2 = 0.5367	892.03
313.15 K, x2 = 0.6038	887.24
313.15 K, x2 = 0.6792	881.8
313.15 K, x2 = 0.738	877.51
313.15 K, x2 = 0.8119	872.03
313.15 K, x2 = 0.873	867.4
313.15 K, x2 = 0.9314	862.88
313.15 K, x2 = 0.98	859.02
323.15 K, x2 = 0	920.55
323.15 K, x2 = 0.0785	914.76
323.15 K, x2 = 0.1359	910.58
323.15 K, x2 = 0.2021	905.79
323.15 K, x2 = 0.2687	901.01
323.15 K, x2 = 0.3364	896.14
323.15 K, x2 = 0.4066	891.09
323.15 K, x2 = 0.4735	886.28
323.15 K, x2 = 0.5415	881.37
323.15 K, x2 = 0.6092	876.44
323.15 K, x2 = 0.6736	871.72
323.15 K, x2 = 0.7453	866.4
323.15 K, x2 = 0.8089	861.6
323.15 K, x2 = 0.8797	856.16
323.15 K, x2 = 0.9374	851.62
323.15 K, x2 = 0.9777	848.38
333.15 K, x2 = 0	910.75
333.15 K, x2 = 0.0695	905.54
333.15 K, x2 = 0.1354	900.67
333.15 K, x2 = 0.2026	895.73
333.15 K, x2 = 0.2701	890.79
333.15 K, x2 = 0.3321	886.27
333.15 K, x2 = 0.4042	881.01
333.15 K, x2 = 0.475	875.82
333.15 K, x2 = 0.5487	870.41
333.15 K, x2 = 0.6014	866.51
333.15 K, x2 = 0.6758	860.97
333.15 K, x2 = 0.7371	856.36
333.15 K, x2 = 0.8142	850.48
333.15 K, x2 = 0.8809	845.28
333.15 K, x2 = 0.9398	840.58
333.15 K, x2 = 0.9785	837.43
343.15 K, x2 = 0	900.73
343.15 K, x2 = 0.0577	896.35
343.15 K, x2 = 0.1155	892
343.15 K, x2 = 0.1728	887.74
343.15 K, x2 = 0.2388	882.84
343.15 K, x2 = 0.299	878.39
343.15 K, x2 = 0.3652	873.49
343.15 K, x2 = 0.4202	869.41
343.15 K, x2 = 0.504	863.2
343.15 K, x2 = 0.5606	858.98
343.15 K, x2 = 0.6275	853.95
343.15 K, x2 = 0.6963	848.75
343.15 K, x2 = 0.7585	844
343.15 K, x2 = 0.8187	839.33
343.15 K, x2 = 0.8814	834.39
343.15 K, x2 = 0.9584	828.16
